Tests used:
LovD = target: T1, LovD (Aspergillus terreus, UniProt Q9Y7D1); assay: LovD transacylation assay: acyl transfer from acyl thioester to C8 hydroxyl of monacolin J, HPLC; type: biochemical; parameters: 6xHis (N); made in house; host or cells: E. coli BL21(DE3)/pAW31 (pET28a); settings: for substrate competence for LovD / apparent kcat (initial turnover rate in the linear range) of monacolin J acylation: 1 mM monacolin J; for substrate competence for LovD: 4 mM acyl-CoA, 10 uM LovD, 10 hours; for Initial Velocity (ki): 1 mM MJ, 4 mM thioester substrate, 10 uM pure LovD, rate of initial turnover in the linear range; for Initial Velocity (ki) / apparent kcat (initial turnover rate in the linear range) of monacolin J acylation: 50 mM HEPES, pH 7.9; for apparent kcat (initial turnover rate in the linear range) of monacolin J acylation: 10 μM LovD, 4 mM acyl donor
T1 sequence (Q9Y7D1 1-413): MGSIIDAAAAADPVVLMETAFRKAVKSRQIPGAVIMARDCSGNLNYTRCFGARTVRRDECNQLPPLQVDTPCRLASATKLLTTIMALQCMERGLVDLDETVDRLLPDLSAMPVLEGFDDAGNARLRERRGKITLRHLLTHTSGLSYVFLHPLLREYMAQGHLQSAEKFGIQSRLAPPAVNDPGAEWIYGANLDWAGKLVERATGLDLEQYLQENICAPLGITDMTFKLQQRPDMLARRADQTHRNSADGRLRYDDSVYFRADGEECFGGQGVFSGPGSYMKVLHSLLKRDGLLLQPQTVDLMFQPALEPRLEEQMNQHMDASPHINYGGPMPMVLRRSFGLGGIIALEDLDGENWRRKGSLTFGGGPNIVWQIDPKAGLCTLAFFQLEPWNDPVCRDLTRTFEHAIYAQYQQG
Procedure: We first examined if an acyl-CoA can be used as substrate for the transacylation reaction. The uninterrupted gene of LovD was amplified from A. terreus genomic DNA using splice by overlap extension PCR and was inserted into the pET28a expression vector. Overexpression of soluble, N-terminal 6×His fusion LovD was performed in E. coli strain BL21(DE3)/pAW31. LovD was purified using Nickel-NTA affinity column to homogeneity (final yield˜40 mg/L). The substrate monacolin J (1 mM) was prepared through the LiOH hydrolysis of lovastatin and was added to a reaction mixture containing pure LovD (10 μM) and butyryl-CoA (4 mM), which is a commercially available acyl-CoA that best mimics the natural α-methylbutyrate side chain. The reaction mixture was incubated at room temperature, extracted with ethyl acetate and analyzed by HPLC and LC-MS (FIG. 5).
We assayed the tolerance of LovD towards different acyl substituents by performing the transacylation assay with various commercially available acyl-CoAs (Table 1A). All assays were perform with 1 mM monacolin J, 4 mM acyl-CoA and 10 uM LovD for 10 hours.
Expression and purification of LovD has been previously described in detail (see, e.g., Xie et al., 2006, Chem Biol 13: 1161-1169). The assays were performed at room temperature in 50 mM HEPES, pH 7.9. The initial velocities (ki) of the acyl substrates were determined with 10 μM LovD, 1 mM monacolin J and 4 mM of the thioester. The reaction mixture at different time points was quenched by trifluoroacetic acid (TFA), extracted with ethyl acetate, evaporated to dryness and redissolved in acetonitrile. The percent conversion of monacolin J to simvastatin was determined by HPLC analysis (C18). The linear range of the turnover rate is reported as ki in Table 1B. To determine the Km of DMB-S-MMP, the concentration of monacolin J is fixed at 2 mM, while the concentration of DMB-S-MMP was varied from 0.2 mM to 10 mM. DMSO is added to a final concentration of 5% to facilitate solubilization of DMB-S-MMP. To obtain Km of monacolin J, DMB-S-MMP concentration is fixed at 2 mM, while the concentration of monacolin J is varied from 0.2 mM to 5 mM.

BioH = target: T2, BioH (Escherichia coli, UniProt P13001); assay: BioH enzymatic hydrolysis assay of dimethylbutyryl thioesters, HPLC 234 nm; type: biochemical; settings: 1 mM substrate, 10 nM BioH
T2 construct: The bioH gene was amplified from E. coli genomic DNA by PCR with flanking restriction sites NdeI and EcoRI; 6xHis (N); made in house; host or cells: E. coli BL21(DE3)/pXK8 (pET28a)
T2 sequence (P13001 1-256): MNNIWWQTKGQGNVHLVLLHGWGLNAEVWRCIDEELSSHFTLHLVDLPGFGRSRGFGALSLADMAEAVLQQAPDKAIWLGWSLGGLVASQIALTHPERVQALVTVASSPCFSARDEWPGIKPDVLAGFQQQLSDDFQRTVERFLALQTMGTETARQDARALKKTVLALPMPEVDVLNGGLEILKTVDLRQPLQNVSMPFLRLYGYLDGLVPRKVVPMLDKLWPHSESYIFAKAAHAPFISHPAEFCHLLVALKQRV
Procedure: (§1) The hydrolysis assays were performed at room temperature in 50 mM HEPES, pH 7.9. The thioester substrate DMB-S-MMP was added to final concentration between 0.1 mM and 1.0 mM. To facilitate solubilization of DMB-S-MMP, DMSO was added to a final concentration of 10% for all the samples. The reaction was initiated with the addition of BioH (0.01 μM) and quenched at desired time points (10, 20, 30 minutes) by adding equal volume of EA/1% AcOH. The organic phase was separated, dried and redissolved in 20 μL of ACN and analyzed with HPLC. The conversions of DMB-S-MMP to DMB-S-MPA were quantified by integration of the peaks at 234 nm. Comparison of the BioH catalytic efficiency towards the three dimethylbutyryl thioesters were performed at 1 mM substrate concentration and 10 nM BioH concentration.

E. coli BL21(DE3)/pAW31 = assay: Whole cell biocatalysis with E. coli overexpressing LovD; type: cell-based, Escherichia coli; settings: 4 mM acyl donor
Procedure: The BL21(DE3)/pAW31 overexpression strain was grown in a shake flask (200 mL) to an OD600 of 1.0, at which time 1 mM IPTG, 0.8 mM monacolin J and 4 mM of either benzoyl-SNAC or benzoyl-SMTG were added to the culture. Expression of LovD and bioconversion was performed at 18° C. The culture was extracted and analyzed for the formation of 8-benzoyl-monacolin J. When supplemented with benzoyl-SNAC, 84% conversion of monacolin J was detected within 20 hours post-induction. The product was lactonized and purified by a single silica-gel chromatography step. The NMR spectra confirmed the regioselective benzoylation of the C8 hydroxyl group as the diagnostic H8 multiplet is shifted downfield to δ 5.61.
Fermentation conditions: 500 mL culture with LB media with 30 mg/L kanamycin. At OD600 of 1.0, cells were concentrated to a final OD600 of 5.0 and induced with 1 mM IPTG. Substrates monacolin J and α-dimethylbutyryl-SNAC were added to a final concentration of 1 mM and 4 mM. At different time points, culture samples were collected, centrifuged, filtered and injected on to HPLC (20 μL). Extraction conditions: When maximum conversion was reached, the broth was acidified to pH of 2.0, extracted with ethyl acetate, dried and redissolved in toluene.
Whole-cell catalytic synthesis of simvastatin acid from MJ acid and DMB-S-MMP were performed as described (see, e.g., Xie et al., (2007) Appl Environ Microbiol 73: 2054-2060). The E. coli BL21(DE3)/pAW31 and YT2/pAW31 strains were cultured side-by-side for comparison. A single colony of the freshly transformed strains was used to inoculate a 5 mL LB culture supplemented with 35 mg/L kanamycin and grown overnight at 37° C. The next morning, 100 μL of the overnight culture was inoculated into 50 mL cultures containing LB broth, F1 minimal medium and F1 medium supplemented with 0.15 mg/L biotin. Growth rates were monitored by periodically measuring the OD600 reading. When OD600 reached ˜0.5, 100 μM IPTG was added to the culture and expression of LovD was performed at 20° C. for 16 hours. To mimic high density fermentation conditions, the cells were concentrated 10-fold before addition of substrates. Typically, a 14 mL aliquot of the culture was transferred to a 15 mL centrifuge tube and the cells were collected by centrifugation (4° C., 4000 g, 10 minutes). The cell pellet was gently resuspended in 1316 μl of the supernatant, followed by addition of 84 μl of a MJ acid stock solution (250 mM in H2O) (final concentration 15 mM). The concentrated culture was then separated into seven 200 μL samples and 1.2 μL of pure DMB-S-MMP was added to each sample (final concentration ˜25 mM). The culture was then shaken at 300 rpm at room temperature. At each time point, a total extraction was performed by adding 10 μL 20% SDS to lyse the cells, followed by liquid-liquid extraction with 500 μL EA/1% AcOH. The organic phase was removed, evaporated, and redissolved in 50 μL ACN for HPLC analysis. For the BL21(DE3) sample, an additional 1.2 μL aliquot of DMB-S-MMP was added after 12 hours to replenish the hydrolyzed substrates.
The E. coli BL21(DE3)/pAW31 strain was grown in LB medium at 37° C. to an OD600 of 0.5, at which time 100 μM IPTG was added to the culture and expression was performed at RT for 16 hours. A 10 ml culture was transferred to a 15 mL centrifuge tube. The cells were collected by centrifugation (4000 g, 10 minutes). The cell pellet was resuspended in 957 μl of the supernatant. The pH was adjusted to pH 7.9 with 1.0 N NaOH, followed by addition of 33 μl 450 mM MJ (final concentration 15 mM) and 6 μl pure DMB-S-MMP (final concentration ˜25 mM). The culture was then shaken at 300 rpm at room temperature. At each time point, a 4 μL aliquot was removed from the reaction mixture, quenched in 300 μL ethyl acetate containing 1% TFA.

[1] = substrate: CCC(C)(C)C(=O)SCCC(=O)OC; assay: BioH enzymatic hydrolysis assay of dimethylbutyryl thioesters, HPLC 234 nm; type: biochemical, Escherichia coli; settings: other: 50 mM HEPES, pH 7.9, 10% DMSO, 0.01 μM BioH
Procedure: as §1

CC(=O)CC(=O)SCCNC(=O)CCNC(=O)[C@H](O)C(C)(C)COP(=O)(O)OP(=O)(O)OC[C@H]1O[C@@H](n2cnc3c(N)ncnc32)[C@H](O)[C@@H]1OP(=O)(O)O [Acetoacetyl-CoA, reference compound]
substrate competence for LovD (LovD): excellent substrates

CCOC(=O)CCSC(=O)C(C)(C)CC [DMB-S-EMP, dimethylbutyryl-S-ethyl mercaptopropionate]
rate of substrate hydrolysis by BioH relative to DMB-S-MMP (BioH): significantly attenuated
Initial Velocity (ki) (LovD): 0.70 min⁻¹

CCC(C)(C)C(=O)SCCCC(=O)OC [DMB-S-MMB, dimethylbutyryl-S-methyl mercaptobutyrate]
Initial Velocity (ki) (LovD): 0.78 min⁻¹

CCC(C)(C)C(=O)SCC(=O)OC [DMB-S-MTG, dimethylbutyryl-S-methyl thioglycolate]
decrease in the rate of hydrolysis by BioH relative to DMB-S-MMP (BioH): 2.5 fold
Initial Velocity (ki) (LovD): 0.03 min⁻¹

CCC(C)(C)C(=O)SCCNC(C)=O [DMB-S-NAC, α-dimethylbutyryl-S-N-acetylcysteamine]
conversion of monacolin J to simvastatin, low cell-density fermentation (E. coli BL21(DE3)/pAW31; 1 mM monacolin J, after two days of culturing): ~90%
Initial Velocity (ki) (LovD): 0.02 min⁻¹

CC(=O)NCCSC(=O)c1ccccc1 [benzoyl-SNAC]
conversion of monacolin J (benzoylation) in vivo (E. coli BL21(DE3)/pAW31; 0.8 mM monacolin J, 18° C., within 20 hours post-induction): 84%
apparent kcat (initial turnover rate in the linear range) of monacolin J acylation (LovD): 0.002 s⁻¹

CCCC(=O)SCCNC(C)=O [butyryl-SNAC]
apparent kcat (initial turnover rate in the linear range) of monacolin J acylation (LovD): 0.0015 s⁻¹

CC(C)(COP(=O)(O)OP(=O)(O)OC[C@H]1O[C@@H](n2cnc3c(N)ncnc32)[C@H](O)[C@@H]1OP(=O)(O)O)[C@@H](O)C(=O)NCCC(=O)NCCSC(=O)CC(=O)O [malonyl-CoA, reference compound]
substrate competence for LovD (LovD): inactive

C[C@H]1C=C2C=C[C@H](C)[C@H](CC[C@@H]3C[C@@H](O)CC(=O)O3)[C@H]2[C@@H](O)C1 [monacolin J]
Km (LovD; DMB-S-MMP fixed at 2 mM, monacolin J 0.2-5 mM): 780 ± 120 µM

CCCCCCCCCCCCCCCC(=O)SCCNC(=O)CCNC(=O)[C@H](O)C(C)(C)COP(=O)(O)OP(=O)(O)OC[C@H]1O[C@@H](n2cnc3c(N)ncnc32)[C@H](O)[C@@H]1OP(=O)(O)O [palmitoyl-CoA, reference compound]
substrate competence for LovD (LovD): inactive

CC[C@H](C)C(=O)SCCNC(C)=O [α-S-methylbutyryl-SNAC]
apparent kcat (initial turnover rate in the linear range) of monacolin J acylation (LovD): ~0.00067 s⁻¹

CC(O)CC(=O)SCCNC(=O)CCNC(=O)[C@H](O)C(C)(C)COP(=O)(O)OP(=O)(O)OC[C@H]1O[C@@H](n2cnc3c(N)ncnc32)[C@H](O)[C@@H]1OP(=O)(O)O (stereo partly drawn) [β-hydroxylbutyryl-CoA, reference compound]
substrate competence for LovD (LovD): excellent substrates

B1: BioH (Escherichia coli K-12) (protein)
chain: MNNIWWQTKGQGNVHLVLLHGWGLNAEVWRCIDEELSSHFTLHLVDLPGFGRSRGFGALSLADMAEAVLQQAPDKAIWLGWSLGGLVASQIALTHPERVQALVTVASSPCFSARDEWPGIKPDVLAGFQQQLSDDFQRTVERFLALQTMGTETARQDARALKKTVLALPMPEVDVLNGGLEILKTVDLRQPLQNVSMPFLRLYGYLDGLVPRKVVPMLDKLWPHSESYIFAKAAHAPFISHPAEFCHLLVALKQRV
notes: The bioH gene was amplified from E. coli genomic DNA by PCR with flanking restriction sites NdeI and EcoRI; 6xHis (N); made in house; host or cells: E. coli BL21(DE3)/pXK8 (pET28a)
Km [1]: 229 ± 26 µM
kcat [1]: 260 ± 45 s⁻¹

Reference: US9970037B2, “Methods and materials for making simvastatin and related compounds” (The Regents of the University of California, priority 2006, dated 2018)
